Experimental data: patent US8017612B2, “Piperazine compound and use thereof as a HCV polymerase inhibitor” (priority 2006, dated 2011)

Key:
[1] = molecular target: T1, HCV polymerase (NS5B) type 1b (Hepatitis C virus genotype 1b, UniProt P26663); assay: Assay of enzyme (HCV polymerase) inhibitory activity, type 1b enzyme; type: biochemical, HCV BK strain (type 1b); settings: HCV polymerase inhibitory activity IC50, 1b, type 1b enzyme
T1 construct: a region encoding NS5B (J Virol 1991 March, 65(3), 1105-13, 544 amino acids after deletion of 47 amino acids on the C-terminal); 6xHis (C); made in house; host or cells: Escherichia coli
Method in brief: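 NS5B from HCV BK strain (type 1b), C-terminal 47 aa deleted, C-terminal His6-tagged, E. coli-expressed, 0.5 μg/ml, with ~450 nt substrate RNA carrying the 3′ UTR (polyU, 3′X) at 5 μg/ml. Incubation 60 min at 25 °C with 50 μM ATP/GTP/CTP, 2 μM UTP plus [3H]UTP, pH 7.5 Tris.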

[2] = molecular target: T2, HCV polymerase (NS5B) type 1a (Hepatitis C virus genotype 1a, UniProt P26664); assay: Assay of enzyme (HCV polymerase) inhibitory activity, type 1a enzyme; type: biochemical, HCV type 1a (cloned from the blood of patients); settings: HCV polymerase inhibitory activity IC50, 1a, type 1a enzyme
T2 construct: made in house; host or cells: Escherichia coli (by the 'similar method' of the 1b enzyme)
Method in brief: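 Patient-derived type 1a NS5B (C-terminal 47-aa deletion, His-tagged, E. coli-expressed) at 1.5 μg/ml was reacted with 5 μg/ml 3′UTR-containing substrate RNA, 50 μM ATP/GTP/CTP, 2 μM UTP plus [3H]UTP, pH 7.5, 25° C for 60 min. TCA-precipitated RNA radioactivity was counted; IC50 from ± compound.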

SMILES	IC50 [1]	IC50 [2]
O=C(NCC1CN(c2ccccc2)C1)[C@H]1CN(c2cnc3cncnc3n2)CCN1S(=O)(=O)c1ccc(OC(F)(F)F)cc1 [Example 867, (R)-4-pteridin-7-yl-1-(4-trifluoromethoxy-benzenesulfonyl)-piperazine-2-carboxylic acid (1-phenyl-azetidin-3-ylmethyl)-amide]	100 to 1000 nM	100 to 1000 nM
CCCc1ccc(CNC(=O)[C@H]2CN(c3nc(Cl)c(C(=O)O)s3)CCN2S(=O)(=O)c2ccc(CC)cc2)cc1 [Example 868, 4-chloro-2-[(R)-4-(4-ethyl-benzenesulfonyl)-3-(4-propyl-benzylcarbamoyl)-piperazin-1-yl]-thiazole-5-carboxylic acid]	< 100 nM	< 100 nM
O=C(NCc1ccc(OC(F)(F)F)cc1)[C@H]1CN(c2nc3cnnc(Cl)c3s2)CCN1S(=O)(=O)c1ccc(OC(F)(F)F)cc1 [Example 869, (R)-4-(7-chloro-thiazolo[4,5-d]pyridazin-2-yl)-1-(4-trifluoromethoxy-benzenesulfonyl)-piperazine-2-carboxylic acid 4-trifluoromethoxy-benzylamide]	< 100 nM	< 100 nM
O=C(NCc1ccc(OC(F)(F)F)cc1)[C@H]1CN(c2nc3c(CO)n[nH]c(=O)c3s2)CCN1S(=O)(=O)c1ccc(OC(F)(F)F)cc1 [Example 870, (R)-4-(4-hydroxymethyl-7-oxo-6,7-dihydro-thiazolo[4,5-d]pyridazin-2-yl)-1-(4-trifluoromethoxy-benzenesulfonyl)-piperazine-2-carboxylic acid 4-trifluoromethoxy-benzylamide]	< 100 nM	< 100 nM
CC(C)NC(=O)c1cncc2ncc(N3CCN(S(=O)(=O)c4ccc(OC(F)(F)F)cc4)[C@@H](C(=O)NCc4ccc(OC(F)(F)F)cc4)C3)nc12 [Example 871, 2-[(R)-4-(4-trifluoromethoxy-benzenesulfonyl)-3-(4-trifluoromethoxy-benzylcarbamoyl)-piperazin-1-yl]-pyrido[3,4-b]pyrazine-8-carboxylic acid isopropylamide]	< 100 nM	< 100 nM
N#Cc1cncc2ncc(N3CCN(S(=O)(=O)c4ccc(OC(F)(F)F)cc4)[C@@H](C(=O)NCc4ccc(OC(F)(F)F)cc4)C3)nc12 [Example 872, (R)-4-(8-cyano-pyrido[3,4-b]pyrazin-2-yl)-1-(4-trifluoromethoxy-benzenesulfonyl)-piperazine-2-carboxylic acid 4-trifluoromethoxy-benzylamide]	< 100 nM	< 100 nM
O=C(NCc1ccc(OC(F)(F)F)cc1)[C@H]1CN(c2nc3cn[nH]c(=O)c3s2)CCN1S(=O)(=O)c1ccc(Cl)cc1 [Example 873, (R)-1-(4-chloro-benzenesulfonyl)-4-(7-oxo-6,7-dihydro-thiazolo[4,5-d]pyridazin-2-yl)-piperazine-2-carboxylic acid 4-trifluoromethoxy-benzylamide]	< 100 nM	< 100 nM
O=C(O)c1n[nH]c(=O)c2sc(N3CCN(S(=O)(=O)c4ccc(OC(F)(F)F)cc4)[C@@H](C(=O)NCc4ccc(OC(F)(F)F)cc4)C3)nc12 [Example 874, 7-oxo-2-[(R)-4-(4-trifluoromethoxy-benzenesulfonyl)-3-(4-trifluoromethoxy-benzylcarbamoyl)-piperazin-1-yl]-6,7-dihydro-thiazolo[4,5-d]pyridazine-4-carboxylic acid]	< 100 nM	< 100 nM
CNC(=O)c1n[nH]c(=O)c2sc(N3CCN(S(=O)(=O)c4ccc(OC(F)(F)F)cc4)[C@@H](C(=O)NCc4ccc(OC(F)(F)F)cc4)C3)nc12 [Example 875, 7-oxo-2-[(R)-4-(4-trifluoromethoxy-benzenesulfonyl)-3-(4-trifluoromethoxy-benzylcarbamoyl)-piperazin-1-yl]-6,7-dihydro-thiazolo[4,5-d]pyridazine-4-carboxylic acid methylamide]	< 100 nM	< 100 nM
NC(=O)c1n[nH]c(=O)c2sc(N3CCN(S(=O)(=O)c4ccc(OC(F)(F)F)cc4)[C@@H](C(=O)NCc4ccc(OC(F)(F)F)cc4)C3)nc12 [Example 876, 7-oxo-2-[(R)-4-(4-trifluoromethoxy-benzenesulfonyl)-3-(4-trifluoromethoxy-benzylcarbamoyl)-piperazin-1-yl]-6,7-dihydro-thiazolo[4,5-d]pyridazine-4-carboxylic acid amide]	< 100 nM	< 100 nM
O=C(NCc1ccc(OC(F)(F)F)cc1)[C@H]1CN(c2nc3cn[nH]c(=O)c3s2)CCN1S(=O)(=O)c1ccc(C(F)(F)F)cc1 [Example 877, (R)-4-(7-oxo-6,7-dihydro-thiazolo[4,5-d]pyridazin-2-yl)-1-(4-trifluoromethyl-benzenesulfonyl)-piperazine-2-carboxylic acid 4-trifluoromethoxy-benzylamide]	< 100 nM	< 100 nM
O=C(NCc1ccc(OC(F)(F)F)cc1)[C@H]1CN(c2nc3nc(O)ncc3s2)CCN1S(=O)(=O)c1ccc(OC(F)(F)F)cc1 [Example 878, (R)-4-(5-hydroxy-thiazolo[4,5-d]pyrimidin-2-yl)-1-(4-trifluoromethoxy-benzenesulfonyl)-piperazine-2-carboxylic acid 4-trifluoromethoxy-benzylamide]	< 100 nM	< 100 nM
O=C(NCc1ccc(OC(F)(F)F)cc1)[C@H]1CN(c2nc3cnncc3s2)CCN1S(=O)(=O)c1ccc(OC(F)(F)F)cc1 [Example 879, (R)-4-thiazolo[4,5-d]pyridazin-2-yl-1-(4-trifluoromethoxy-benzenesulfonyl)-piperazine-2-carboxylic acid 4-trifluoromethoxy-benzylamide]	< 100 nM	< 100 nM
CCCc1ccc(CNC(=O)[C@H]2CN(c3nc4c(C(=O)OCC)nnc(Cl)c4s3)CCN2S(=O)(=O)c2ccc(CC)cc2)cc1 [Example 880, 7-chloro-2-[(R)-4-(4-ethyl-benzenesulfonyl)-3-(4-propyl-benzylcarbamoyl)-piperazin-1-yl]-thiazolo[4,5-d]pyridazine-4-carboxylic acid ethyl ester]	< 100 nM	< 100 nM
O=C(NCc1ccc(OC(F)(F)F)cc1)[C@H]1CN(c2nc3cn[nH]c(=O)c3s2)CCN1S(=O)(=O)c1ccc(Br)cc1 [Example 881, (R)-1-(4-bromo-benzenesulfonyl)-4-(7-oxo-6,7-dihydro-thiazolo[4,5-d]pyridazin-2-yl)-piperazine-2-carboxylic acid 4-trifluoromethoxy-benzylamide]	< 100 nM	< 100 nM
COCC1(c2ccc(CNC(=O)[C@H]3CN(c4nc5cn[nH]c(=O)c5s4)CCN3S(=O)(=O)c3ccc(OC(F)(F)F)cc3)cc2)CC1 [Example 882, (R)-4-(7-oxo-6,7-dihydro-thiazolo[4,5-d]pyridazin-2-yl)-1-(4-trifluoromethoxy-benzenesulfonyl)-piperazine-2-carboxylic acid 4-(1-methoxymethyl-cyclopropyl)-benzylamide]	< 100 nM	100 to 1000 nM
CCN(C)c1ccc(CNC(=O)[C@H]2CN(c3nc4cn[nH]c(=O)c4s3)CCN2S(=O)(=O)c2ccc(OC(F)(F)F)cc2)cc1 [Example 883, (R)-4-(7-oxo-6,7-dihydro-thiazolo[4,5-d]pyridazin-2-yl)-1-(4-trifluoromethoxy-benzenesulfonyl)-piperazine-2-carboxylic acid 4-(ethyl-methyl-amino)-benzylamide]	< 100 nM	< 100 nM
COc1ccc(S(=O)(=O)N2CCN(c3nc4cn[nH]c(=O)c4s3)C[C@@H]2C(=O)NCc2ccc(OC(F)(F)F)cc2)cc1 [Example 884, (R)-1-(4-methoxy-benzenesulfonyl)-4-(7-oxo-6,7-dihydro-thiazolo[4,5-d]pyridazin-2-yl)-piperazine-2-carboxylic acid 4-trifluoromethoxy-benzylamide]	< 100 nM	< 100 nM
O=C(NCc1ccc(OC(F)(F)F)cc1)[C@H]1CN(c2nc3cncnc3s2)CCN1S(=O)(=O)c1ccc(OC(F)(F)F)cc1 [Example 885, (R)-4-thiazolo[5,4-d]pyrimidin-2-yl-1-(4-trifluoromethoxy-benzenesulfonyl)-piperazine-2-carboxylic acid 4-trifluoromethoxy-benzylamide]	< 100 nM	< 100 nM
O=C(NCc1ccc(OC(F)(F)F)cc1)[C@H]1CN(c2nc3ncncc3s2)CCN1S(=O)(=O)c1ccc(C(F)(F)F)cc1 [Example 886, (R)-4-thiazolo[4,5-d]pyrimidin-2-yl-1-(4-trifluoromethyl-benzenesulfonyl)-piperazine-2-carboxylic acid 4-trifluoromethoxy-benzylamide]	< 100 nM	< 100 nM
O=C(NCc1ccc(OC(F)(F)F)cc1)[C@H]1CN(c2nc3nc(Cl)ncc3s2)CCN1S(=O)(=O)c1ccc(C(F)(F)F)cc1 [Example 887, (R)-4-(5-chloro-thiazolo[4,5-d]pyrimidin-2-yl)-1-(4-trifluoromethyl-benzenesulfonyl)-piperazine-2-carboxylic acid 4-trifluoromethoxy-benzylamide]	< 100 nM	< 100 nM
